In patent US10105357B2, “Indication of antibiotic drugs for preparation of cancer inhibition pharmaceutical composition” (LAUNX BIOMEDICAL CO., LTD., priority 2014, dated 2018):
Structures can show the parent of a compound that is named as a salt. Where two headings read alike, the source gives them in different places.

Assays:
U-2OS = test: Cell viability analysis, osteosarcoma U-2OS; assay type: cell-based, human; conditions: Homo sapiens, U2OS, 72 h, read-out: The results of antibiotic drug inhibiting cancer cell lines (cell viability analysis), U2OS
[1] = test system: SAS (Tongue squamous cell carcinoma); test: Cell viability analysis, tongue cancer SAS; assay type: cell-based, human; conditions: Homo sapiens, 72 h, read-out: The results of antibiotic drug inhibiting cancer cell lines (cell viability analysis), SAS
BxPC-3 = test: Cell viability analysis, pancreatic cancer BxPC-3; assay type: cell-based, human; conditions: Homo sapiens, BXPC-3, 72 h, read-out: The results of antibiotic drug inhibiting cancer cell lines (cell viability analysis), BxPC-3
[2] = test system: HepG2 (Hepatocellular Carcinoma); test: Cell viability analysis, hepatic cancer HepG2; assay type: cell-based, human; conditions: Homo sapiens
[3] = test system: C-33A (Cervical carcinoma); test: Cell viability analysis, cervical cancer C-33A; assay type: cell-based, human; conditions: Homo sapiens, C-33-A, 72 h, read-out: The results of antibiotic drug inhibiting cancer cell lines (cell viability analysis), C-33A
NIH: OVCAR-3 = test: Cell viability analysis, ovarian cancer NIH: OVCAR-3; assay type: cell-based, human; conditions: Homo sapiens, OVCAR-3, 72 h, read-out: The results of antibiotic drug inhibiting cancer cell lines (cell viability analysis), NIH-OVCAR-3
[4] = test system: 786-O (Renal adenocarcinoma); test: Cell viability analysis, renal cancer 786-O; assay type: cell-based, human; conditions: Homo sapiens, 786-0, 72 h, read-out: The results of antibiotic drug inhibiting cancer cell lines (cell viability analysis), 786-O
[5] = test system: BCC (basal cell carcinoma); test: Cell viability analysis, skin cancer BCC; assay type: cell-based, human; conditions: Homo sapiens, 72 h, read-out: The results of antibiotic drug inhibiting cancer cell lines (cell viability analysis), BCC
[6] = test system: HeLa (Cervix Adenocarcinoma); test: Cell viability analysis, cervical cancer HeLa; assay type: cell-based, human; conditions: Homo sapiens, HeLa
cancer cell lines = test: Cell viability analysis (WST-1) on cancer cell lines; assay type: cell-based, human; conditions: drug 10 μM, 72 hours, WST-1; Table 3
[7] = test system: MDA-MB-231 (Mammary Gland, Adenocarcinoma); test: Cell viability analysis, breast cancer MDA-MB-231; assay type: cell-based, human; conditions: Homo sapiens, MDA-MB-231, 72 h, read-out: The results of antibiotic drug inhibiting cancer cell lines (cell viability analysis), MDA-MB231
TOV-21G = test: Cell viability analysis, ovarian cancer TOV-21G; assay type: cell-based, human; conditions: Homo sapiens, TOV21G, 72 h, read-out: The results of antibiotic drug inhibiting cancer cell lines (cell viability analysis), TOV-21G
[8] = test system: PC3 (p53−) (Prostate Adenocarcinoma); test: Cell viability analysis, prostate cancer PC3; assay type: cell-based, human; conditions: Homo sapiens
[9] = test system: A375 (Amelanotic Melanoma); test: Cell viability analysis, skin cancer A375; assay type: cell-based, human; conditions: Homo sapiens
[10] = test system: Hep3B (hepatocellular carcinoma); test: Cell viability analysis, hepatic cancer Hep3B; assay type: cell-based, human; conditions: Homo sapiens, Hep3B, 72 h, read-out: The results of antibiotic drug inhibiting cancer cell lines (cell viability analysis), Hep3B
[11] = test system: TSGH-8301 (Urinary Bladder Carcinoma); test: Cell viability analysis, bladder cancer TSGH-8301; assay type: cell-based, human; conditions: Homo sapiens
[12] = test system: AGS (Gastric Adenocarcinoma); test: Cell viability analysis, gastric cancer AGS; assay type: cell-based, human; conditions: Homo sapiens
[13] = test system: HCT116 (p53+) (Colorectal Carcinoma)
AsPC-1 = test: Cell viability analysis, pancreatic cancer AsPC-1; assay type: cell-based, human; conditions: Homo sapiens, ASPC1, 72 h, read-out: The results of antibiotic drug inhibiting cancer cell lines (cell viability analysis), AsPC-1
[14] = test system: MCF7 (Mammary Gland, Adenocarcinoma); test: Cell viability analysis, breast cancer MCF7; assay type: cell-based, human; conditions: Homo sapiens
[15] = test system: MKN-45 (Gastric Adenocarcinoma); test: Cell viability analysis, gastric cancer MKN-45; assay type: cell-based, human; conditions: Homo sapiens
[16] = test system: HI650 (Lung Adenocarcinoma); test: Cell viability analysis, lung cancer HI650; assay type: cell-based, human; conditions: Homo sapiens
[17] = test system: LoVo (Colorectal Adenocarcinoma); test: Cell viability analysis, colon cancer LoVo; assay type: cell-based, human; conditions: Homo sapiens, LoVo
[18] = test system: A549 (Lung Adenocarcinoma); test: Cell viability analysis, lung cancer A549; assay type: cell-based, human; conditions: Homo sapiens
T24 = test: Cell viability analysis, bladder cancer T24; assay type: cell-based, human; conditions: Homo sapiens, T-24, 72 h, read-out: The results of antibiotic drug inhibiting cancer cell lines (cell viability analysis), T24

Question: How did the viability at 10 µM (U-2OS) turn out when `CN(C)C(=O)C(CCN1CCC(O)(c2ccc(Cl)cc2)CC1)(c1ccccc1)c1ccccc1` [Loperamide hydrochloride] was run?
Answer: 32%

Question: And the viability at 10 µM [1]?
Answer: 31.8%

Question: What about the viability at 10 µM (BxPC-3) of the same compound?
Answer: 35.7%

Question: And the viability at 10 µM ([2]; 72 h, HepG2, repeated experiment, read-out: The results of antibiotic drug inhibiting cancer cell lines (cell viability analysis), HepG2)?
Answer: 35.8%

Question: And the viability at 10 µM ([2]; HepG2, drug 10 μM, 72 hours, WST-1, OD450 nm, read-out: cell viability (survival rate), HepG2)?
Answer: 103%

Question: What about the viability at 10 µM [3] of the same compound?
Answer: 39.6%

Question: And the viability at 10 µM (NIH: OVCAR-3)?
Answer: 75.5%

Question: And the viability at 10 µM [4]?
Answer: 40.9%

Question: What about the viability at 10 µM [5] of the same compound?
Answer: 51.5%

Question: What about the viability at 10 µM ([6]; 72 h, repeated experiment, read-out: The results of antibiotic drug inhibiting cancer cell lines (cell viability analysis), HeLa) of the same compound?
Answer: 36.8%

Question: What about the viability at 10 µM ([6]; drug 10 μM, 72 hours, WST-1, OD450 nm, read-out: cell viability (survival rate), HeLa) of the same compound?
Answer: 73%

Question: What about the “inhibition effect on different cancer cell lines” value (cancer cell lines) of the same compound?
Answer: significant inhibition effect

Question: What about the viability at 10 µM [7] of the same compound?
Answer: 72.5%

Question: What about the viability at 10 µM (TOV-21G) of the same compound?
Answer: 24.2%

Question: And the viability at 10 µM ([8]; 72 h, PC-3, repeated experiment, read-out: The results of antibiotic drug inhibiting cancer cell lines (cell viability analysis), PC-3)?
Answer: 41.6%

Question: What about the viability at 10 µM ([8]; drug 10 μM, 72 hours, WST-1, OD450 nm, read-out: cell viability (survival rate), PC3) of the same compound?
Answer: 64.7%

Question: What about the viability at 10 µM ([9]; A-375, 72 h, A375, repeated experiment, read-out: The results of antibiotic drug inhibiting cancer cell lines (cell viability analysis), A375) of the same compound?
Answer: 34.3%

Question: And the viability at 10 µM ([9]; A-375, drug 10 μM, 72 hours, WST-1, OD450 nm, read-out: cell viability (survival rate), A375)?
Answer: 58.8%

Question: What about the viability at 10 µM [10] of the same compound?
Answer: 50.2%

Question: What about the viability at 10 µM ([11]; 72 h, TSGH-8301, repeated experiment, read-out: The results of antibiotic drug inhibiting cancer cell lines (cell viability analysis), TSGH-8301) of the same compound?
Answer: 42.9%

Question: And the viability at 10 µM ([11]; drug 10 μM, 72 hours, WST-1, OD450 nm, read-out: cell viability (survival rate), TSGH)?
Answer: 42.7%

Question: What about the viability at 10 µM ([12]; 72 h, AGS, repeated experiment, read-out: The results of antibiotic drug inhibiting cancer cell lines (cell viability analysis), AGS) of the same compound?
Answer: 22.2%

Question: And the viability at 10 µM ([12]; drug 10 μM, 72 hours, WST-1, OD450 nm, read-out: cell viability (survival rate), AGS)?
Answer: 57.3%

Question: And the viability [13]?
Answer: 47.3%

Question: What about the viability at 10 µM (AsPC-1) of the same compound?
Answer: 47.5%

Question: What about the viability at 10 µM ([14]; MCF7, 72 h, MCF-7, repeated experiment, read-out: The results of antibiotic drug inhibiting cancer cell lines (cell viability analysis), MCF-7) of the same compound?
Answer: 36.2%

Question: What about the viability at 10 µM ([14]; MCF7, drug 10 μM, 72 hours, WST-1, OD450 nm, read-out: cell viability (survival rate), MCF7) of the same compound?
Answer: 78.9%

Question: And the viability at 10 µM ([15]; 72 h, MKN-45, repeated experiment, read-out: The results of antibiotic drug inhibiting cancer cell lines (cell viability analysis), MKN-45)?
Answer: 61.5%

Question: And the viability at 10 µM ([15]; MKN-45, drug 10 μM, 72 hours, WST-1, OD450 nm, read-out: cell viability (survival rate), MKN-45)?
Answer: 64.3%

Question: What about the viability at 10 µM ([16]; NCI-H1650, 72 h, H1650, repeated experiment, read-out: The results of antibiotic drug inhibiting cancer cell lines (cell viability analysis), H1650) of the same compound?
Answer: 41.3%

Question: What about the viability at 10 µM ([16]; NCI-H1650, drug 10 μM, 72 hours, WST-1, OD450 nm, read-out: cell viability (survival rate), H1650) of the same compound?
Answer: 66.7%

Question: What about the viability at 10 µM ([17]; 72 h, repeated experiment, read-out: The results of antibiotic drug inhibiting cancer cell lines (cell viability analysis), LoVo) of the same compound?
Answer: 49.3%

Question: What about the viability at 10 µM ([17]; drug 10 μM, 72 hours, WST-1, OD450 nm, read-out: cell viability (survival rate), LoVo) of the same compound?
Answer: 64.8%

Question: What about the viability at 10 µM ([18]; 72 h, A549, repeated experiment, read-out: The results of antibiotic drug inhibiting cancer cell lines (cell viability analysis), A549) of the same compound?
Answer: 26.2%

Question: What about the viability at 10 µM ([18]; A549, drug 10 μM, 72 hours, WST-1, OD450 nm, read-out: cell viability (survival rate), A549) of the same compound?
Answer: 104%

Question: What about the viability at 10 µM (T24) of the same compound?
Answer: 73.5%

Question: Which viability at 10 µM (U-2OS) does the source give for `O=c1n(CCCN2CCN(c3cccc(Cl)c3)CC2)nc2ccccn12` [Trazodone hydrochloride (Desyrel), Trazodone hydrochloride] here?
Answer: 57.6%

Question: What about the viability at 10 µM [1] of the same compound?
Answer: 58.4%

Question: And the viability at 10 µM (BxPC-3)?
Answer: 73.5%

Question: What about the viability at 10 µM ([2]; HepG2, 72 h, read-out: The results of antibiotic drug inhibiting cancer cell lines (cell viability analysis), HepG2, HepG2, repeated experiment) of the same compound?
Answer: 109%

Question: And the viability at 10 µM [3]?
Answer: 112%

Question: And the viability at 10 µM (NIH: OVCAR-3)?
Answer: 103%

Question: And the viability at 10 µM [4]?
Answer: 95.5%

Question: What about the viability at 10 µM [5] of the same compound?
Answer: 114%

Question: What about the viability at 10 µM ([6]; 72 h, read-out: The results of antibiotic drug inhibiting cancer cell lines (cell viability analysis), HeLa, repeated experiment) of the same compound?
Answer: 105%

Question: What about the “inhibition effect on different cancer cell lines” value (cancer cell lines) of the same compound?
Answer: significant inhibition effect

Question: What about the viability at 10 µM [7] of the same compound?
Answer: 87.8%

Question: What about the viability at 10 µM (TOV-21G) of the same compound?
Answer: 107%

Question: What about the viability at 10 µM ([8]; 72 h, read-out: The results of antibiotic drug inhibiting cancer cell lines (cell viability analysis), PC-3, PC-3, repeated experiment) of the same compound?
Answer: 126%

Question: What about the viability at 10 µM ([9]; A-375, 72 h, read-out: The results of antibiotic drug inhibiting cancer cell lines (cell viability analysis), A375, A375, repeated experiment) of the same compound?
Answer: 111%

Question: What about the viability at 10 µM [10] of the same compound?
Answer: 110%

Question: And the viability at 10 µM ([11]; 72 h, read-out: The results of antibiotic drug inhibiting cancer cell lines (cell viability analysis), TSGH-8301, TSGH-8301, repeated experiment)?
Answer: 134%

Question: And the viability at 10 µM ([12]; 72 h, read-out: The results of antibiotic drug inhibiting cancer cell lines (cell viability analysis), AGS, repeated experiment)?
Answer: 120%

Question: And the viability [13]?
Answer: 113%

Question: And the viability at 10 µM (AsPC-1)?
Answer: 89.4%

Question: And the viability at 10 µM ([14]; MCF7, 72 h, read-out: The results of antibiotic drug inhibiting cancer cell lines (cell viability analysis), MCF-7, MCF-7, repeated experiment)?
Answer: 97.8%

Question: And the viability at 10 µM ([15]; MKN-45, 72 h, read-out: The results of antibiotic drug inhibiting cancer cell lines (cell viability analysis), MKN-45, MKN-45, repeated experiment)?
Answer: 108%

Question: What about the viability at 10 µM ([16]; NCI-H1650, 72 h, read-out: The results of antibiotic drug inhibiting cancer cell lines (cell viability analysis), H1650, H1650, repeated experiment) of the same compound?
Answer: 82.4%

Question: And the viability at 10 µM ([17]; 72 h, read-out: The results of antibiotic drug inhibiting cancer cell lines (cell viability analysis), LoVo, repeated experiment)?
Answer: 88.8%

Question: What about the viability at 10 µM ([18]; A549, 72 h, read-out: The results of antibiotic drug inhibiting cancer cell lines (cell viability analysis), A549, A549, repeated experiment) of the same compound?
Answer: 92%

Question: And the viability at 10 µM (T24)?
Answer: 106%
